Measured values reported in EP2970359B1, “FLUORINATED PYRIMIDINE ANALOGS AND METHODS OF USE THEREOF” (Epigenetics Pharma LLC, priority 2013, dated 2014).
Values joined by “and” are separate entries in the source; they are usually repeats but may differ in a detail not shown here. Equal entries are not always repeated. “Also recorded” adds a separate entry of the source. Where two headings read alike, the source gives them in different places.

Tests used:
[1] = tested on: NCI-H460; assay: In vitro cytotoxicity (GI50), non-small cell lung cancer cell line; conditions: Homo sapiens
Protocol: (§1) The in vitro cytotoxicity was measured in the following cell lines: NCI-H460 (ATCC #HTB-177) (non-small cell lung), HCT-116 (ATCC #CCL-247) (colorectal), HL-60 (ATCC #CCL-240) (leukemia), and MDA-MB-231 (ATCC #HTB-26) (breast). Table 4. Growth Inhibition (GI50) Values (µM) for Selected Cell Lines.

[2] = tested on: L1210; assay: In vitro cytotoxicity, leukemia cell line; conditions: for IC50: Mus musculus, L1210, read-out: In vitro cytotoxicity Leukemia L1210
[3] = tested on: THP-1 cells; assay: Giemsa stain of treated cells (morphology); type: cell-based; conditions: compared to vehicle control, FIGURE 10
[4] = tested on: P388; assay: In vitro cytotoxicity, leukemia cell line; conditions: Mus musculus, P388, read-out: In vitro cytotoxicity Leukemia P388*
[5] = tested on: DNA methyltransferase (DNMT); assay: In vitro DNA methyltransferase inhibition in HCT-116 cells (EpiQuick DNA Methyltransferase Activity/Inhibition Assay Kit)
[6] = tested on: HL-60; assay: In vitro cytotoxicity (GI50), leukemia cell line; type: cell-based; conditions: Homo sapiens
Protocol: as §1

[7] = tested on: OVCAR-8; assay: In vitro cytotoxicity, ovarian cancer cell line; type: cell-based; conditions: Homo sapiens, Table 1, asterisk not explained
[8] = tested on: MDA-MB-231; assay: In vitro cytotoxicity (GI50), breast cancer cell line; conditions: Homo sapiens
Protocol: as §1

[9] = tested on: THP-1 leukemia cells; assay: Growth inhibition of leukemia cell line compared with decitabine; type: cell-based; conditions: THP-1, equimolar concentrations; FIGURE 7
[10] = tested on: ACHN; assay: In vitro cytotoxicity, renal cancer cell line; type: cell-based; conditions: Homo sapiens, Table 1, asterisk not explained
[11] = tested on: Kasumi-1 cells; assay: Growth inhibition of leukemia cell line compared with decitabine; type: cell-based; conditions: Kasumi-1, equimolar concentrations; FIGURE 8
[12] = target: T1, DNMT1 (Homo sapiens, UniProt P26358); assay: Western blot of DNMT1 in Kasumi-1 cells; type: cell-based; conditions: two concentrations, FIGURE 9
T1 construct: endogenous in cells; host or cells: Kasumi-1

[13] = tested on: Kasumi-1 cells; assay: Giemsa stain of treated cells (morphology); type: cell-based; conditions: compared with vehicle control, FIGURE 11
[14] = tested on: HCT-116; assay: In vitro cytotoxicity (GI50), colorectal cancer cell line; conditions: Homo sapiens
Protocol: as §1

[15] = tested on: L1210; conditions: Table 3
[16] = Stability in water; type: physicochemical
[17] = following subcutaneous administration; reported; cited from earlier work
[18] = known; cleavage of the base at the 6-position of the cytosine ring; cited from earlier work
[19] = NCI-H460, read-out: Growth Inhibition (GI50) NCI-H460
[20] = NCI-H460, read-out: In vitro cytotoxicity NSCL NCI-H460
[21] = HL-60, Table 4, read-out: Growth Inhibition (GI50) HL-60
[22] = MDA-MB-231, read-out: Growth Inhibition (GI50) MDA-MB-231
[23] = MDA-MB-231, read-out: In vitro cytotoxicity Breast MDA-MB-231
[24] = HCT-116, read-out: Growth Inhibition (GI50) HCT-116
[25] = HCT-116, read-out: In vitro cytotoxicity Colon HCT-116

T1 sequence (P26358 whole entry): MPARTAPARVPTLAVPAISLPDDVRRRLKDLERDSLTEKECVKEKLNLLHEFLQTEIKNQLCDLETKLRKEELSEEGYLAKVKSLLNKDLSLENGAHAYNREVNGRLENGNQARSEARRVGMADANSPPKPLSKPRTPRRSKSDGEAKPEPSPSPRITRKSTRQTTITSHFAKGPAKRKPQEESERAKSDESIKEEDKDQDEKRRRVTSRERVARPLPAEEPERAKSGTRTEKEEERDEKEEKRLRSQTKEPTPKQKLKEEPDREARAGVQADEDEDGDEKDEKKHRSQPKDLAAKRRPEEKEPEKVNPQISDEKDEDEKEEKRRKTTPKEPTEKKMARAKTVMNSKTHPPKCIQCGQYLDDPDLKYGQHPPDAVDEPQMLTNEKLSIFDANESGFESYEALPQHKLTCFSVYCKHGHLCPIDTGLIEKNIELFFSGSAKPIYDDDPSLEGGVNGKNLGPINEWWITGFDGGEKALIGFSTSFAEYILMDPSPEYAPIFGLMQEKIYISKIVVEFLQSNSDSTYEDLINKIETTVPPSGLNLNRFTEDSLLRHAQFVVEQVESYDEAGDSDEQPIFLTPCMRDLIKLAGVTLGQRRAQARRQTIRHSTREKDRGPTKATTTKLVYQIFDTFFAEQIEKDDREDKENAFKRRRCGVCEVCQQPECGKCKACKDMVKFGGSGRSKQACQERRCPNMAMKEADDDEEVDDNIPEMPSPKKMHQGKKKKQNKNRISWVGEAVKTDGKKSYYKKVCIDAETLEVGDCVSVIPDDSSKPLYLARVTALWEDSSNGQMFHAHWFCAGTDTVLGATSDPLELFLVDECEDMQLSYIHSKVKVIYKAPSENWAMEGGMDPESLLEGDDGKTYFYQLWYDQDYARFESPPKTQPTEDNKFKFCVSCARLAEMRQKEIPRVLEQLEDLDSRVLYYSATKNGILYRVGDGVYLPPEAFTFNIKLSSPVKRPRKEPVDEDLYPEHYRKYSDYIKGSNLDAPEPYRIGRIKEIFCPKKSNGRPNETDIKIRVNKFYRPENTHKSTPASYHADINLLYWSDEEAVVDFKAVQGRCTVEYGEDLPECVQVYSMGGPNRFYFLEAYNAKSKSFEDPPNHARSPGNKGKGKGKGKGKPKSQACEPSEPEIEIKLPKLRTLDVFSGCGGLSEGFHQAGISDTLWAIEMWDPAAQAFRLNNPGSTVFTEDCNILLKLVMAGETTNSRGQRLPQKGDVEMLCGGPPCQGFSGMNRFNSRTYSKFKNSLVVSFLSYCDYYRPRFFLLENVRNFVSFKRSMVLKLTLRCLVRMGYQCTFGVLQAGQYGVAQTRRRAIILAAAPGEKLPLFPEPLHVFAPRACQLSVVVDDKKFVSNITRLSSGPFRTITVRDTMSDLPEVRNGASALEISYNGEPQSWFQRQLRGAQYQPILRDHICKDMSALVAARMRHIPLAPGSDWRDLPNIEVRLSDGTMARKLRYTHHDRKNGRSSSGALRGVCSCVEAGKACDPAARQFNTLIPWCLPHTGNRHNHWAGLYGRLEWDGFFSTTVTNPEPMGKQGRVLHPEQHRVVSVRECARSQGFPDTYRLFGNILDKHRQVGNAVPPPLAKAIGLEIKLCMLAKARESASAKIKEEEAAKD

| SMILES | GI50 [1, 19] [µM] | IC50 [1, 20] [µM] | IC50 [2] [µM] | GI50 [6, 21] [µM] | GI50 [8, 22] [µM] | IC50 [8, 23] [µM] | GI50 [14, 24] [µM] | IC50 [14, 25] [µM] | other results |
| --- | --- | --- | --- | --- | --- | --- | --- | --- | --- |
| Nc1ncn([C@@H]2O[C@H](CO)[C@@H](O)C2(F)F)c(=O)n1 [NUC013, 2',2'-difluoro-5-azadeoxycytidine] | 4.39 | 4.39 | 1.02 | 1.51 | > 31.2 | > 62.5 | 4.54 | 4.54 | morphologic changes (Giemsa stain) [3]: morphologic changes suggestive of cell differentiation; IC50 [4]: 0.48 µM; Percent Inhibition of DNMT ([5]; 1 µM, 24 hours, HCT-116 cells, one value per experiment (1-4)): 61.73% and 35.77% and 62.63%; potency as a DNMTI relative to 5-azacytidine ([5]; colon cancer cells, FIGURE 6): approximately 10 fold; IC50 [7]: 25.9 µM; inhibitory effect on cell growth / cytoreduction compared with decitabine [9]: stronger inhibitory effect; also recorded: stronger cytoreduction; IC50 [10]: 0.89 µM; inhibitory effect on cell growth / cytoreduction compared with decitabine [11]: slightly weaker effect; also recorded: weaker cytoreduction; DNMT1 inhibition by Western blot compared with equimolar decitabine [12]: weaker DNMT1 inhibition; morphologic changes (Giemsa stain) [13]: morphologic changes suggestive of cell differentiation; GI50 ([14]; HCT-116): 4.54 µM |
| O=c1ncccn1[C@H]1O[C@H](CO)[C@@H](O)C1(F)F [NUC020] | – | – | – | – | – | – | – | – | GI50 [1, 20]: 136 µM; GI50 [15]: 346 µM; GI50 [8, 23]: 213 µM; GI50 [14, 25]: 279 µM |
| O=c1ncccn1[C@@H]1O[C@H](CO)[C@@H](O)C1(F)F [NUC019, 2'-deoxy-2',2'-difluorozebularine] | 136 | – | – | – | 166 | – | 310 | – | – |
| NC1=NC(=O)N([C@@H]2O[C@H](CO)[C@@H](O)C2(F)F)CN1 [NUC014, 2',2'-difluoro-5,6-dihydro-5-azadeoxycytidine] | – | > 31.2 | 90.6 | – | – | > 31.2 | – | > 31.2 | stability in an aqueous environment [16]: stable in an aqueous environment; hydrolytic cleavage at the 6-position of the cytosine ([16]; aqueous environment): does not undergo hydrolytic cleavage; cytotoxicity against leukemia cell line L1210 (in words) [2]: moderate cytotoxicity |
| Nc1ncn([C@@H]2O[C@H](CO)[C@@H](O)[C@H]2O)c(=O)n1 [Azacytidine, 5-azacytidine] | – | – | 1.7 to 2.4 | 0.44 | – | – | – | – | half-life [17]: 41 min |
| O=c1ncccn1[C@@H]1O[C@H](CO)[C@@H](O)[C@H]1O [Zebularine, reference compound] | – | 99.1 | 108 | – | – | 144 | – | 47.9 | – |
| Nc1ncn([C@H]2C[C@H](O)[C@@H](CO)O2)c(=O)n1 [Decitabine, 5-azadeoxycytidine, reference compound] | 13 | 13 to 44 | – | – | > 31.2 | > 62.5 | > 31.2 | > 62.5 | stability in water [18]: unstable in water; morphologic changes (Giemsa stain) [3]: morphologic changes suggestive of cell differentiation; GI50 ([6]; HL-60, read-out: Growth Inhibition (GI50) HL-60): 0.27 µM; IC50 [7]: > 1000 µM; IC50 [10]: > 1000 µM; morphologic changes (Giemsa stain) [13]: morphologic changes suggestive of cell differentiation |
| NC1=NC(=O)N([C@@H]2O[C@H](CO)[C@@H](O)[C@H]2O)CN1 [5,6-dihydro-5-azacytidine, reference compound] | 4.84 | – | – | 0.03 | > 31.2 | – | 21.4 | – | – |
| Nc1ccn([C@@H]2O[C@H](CO)[C@@H](O)C2(F)F)c(=O)n1 [gemcitabine, reference compound] | 0.02 | – | – | 0.03 | 0.72 | – | 0.01 | – | – |
